# Source: publication PMC10208570, “Peptidomimetic antibiotics disrupt the lipopolysaccharide transport bridge of drug-resistant Enterobacteriaceae” (Science Advances, 2023)
# Where a SMILES comes first, the peptide text is derived from it. Bridges are numbered along the chain shown (N, C = ends). [ ]: non-standard residue; d: D form. Pen = CC(C)(S)[C@H](N)C(=O)O; dDab = NCC[C@@H](N)C(=O)O; Dab = NCC[C@H](N)C(=O)O
# Experiments:
# [1] = test system: E. coli ATCC 25922 (parent / WT); assay: microbe, parasite or virus in culture; conditions: CLSI method; parent strain
# Protocol: (§1) MIC assays [Clinical and Laboratory Standards Institute (CLSI) methodology] and serial passage studies were performed as described by Luther et al. ([6]). […] Resistant mutants were isolated, and their MIC values were determined and sent to Microbes NG (Birmingham, United Kingdom) for whole-genome sequencing and bioinformatic analysis.
# [2] = test system: E. coli ATCC 25922 LptA Q62L mutant; assay: microbe, parasite or virus in culture; conditions: CLSI method; clone harboring LptA Q62L
# Protocol: as §1
# [3] = test system: K. pneumoniae ATCC 43816 (parent / WT); assay: microbe, parasite or virus in culture; conditions: CLSI method; parent strain
# Protocol: as §1
# [4] = test system: K. pneumoniae NCTC 13443 (NDM-1) (parent / WT); assay: microbe, parasite or virus in culture; conditions: CLSI method; parent strain
# Protocol: as §1
# [5] = test system: K. pneumoniae NCTC 13443 (NDM-1) LptA Q62L mutant; assay: microbe, parasite or virus in culture; conditions: CLSI method; clone harboring LptA Q62L
# Protocol: as §1
# [6] = molecular target: T1, LptAm (Escherichia coli, UniProt P0ADV1); assay: biochemical; type: binding, E. coli
# T1 construct: His6-GB1 (N, cleaved yes); made in house; host or cells: E. coli BL21 (DE3)
# T1 sequence (P0ADV1 28-159): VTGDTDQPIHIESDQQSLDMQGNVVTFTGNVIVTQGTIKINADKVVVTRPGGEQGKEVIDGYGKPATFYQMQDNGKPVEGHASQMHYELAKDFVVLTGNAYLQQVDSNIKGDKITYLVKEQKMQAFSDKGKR
# Protocol: (§2) Protein stocks were purified and concentrated in buffer 1 [50 mM Na-Pi (pH 7) and 150 mM NaCl] and, if necessary, diluted to desired concentrations using buffer 2 [50 mM Na-Pi (pH 7), 150 mM NaCl, and 0.05% Tween 20]. Peptide stocks and fluorescently labeled peptide stocks were made in buffer 2. Every serial dilution consisted of 24 wells, the first well with the highest concentrate and the last well (well 24) with the lowest. First, 50 μl of buffer 2 was added to the wells 2 to 24 of each serial dilution. Then, 100 μl of concentrated unlabeled peptide/protein in their respective buffers was added to the first well. Fifty microliters were taken from the first well and added to the second well for a 1:1 serial dilution and continued for the 24 wells. […] Plates were covered with adhesive seals and left to incubate overnight at 4°C before FP measurements the next day. Anisotropy was measured using the Tecan Safire2 plate reader using a 10-nm bandwidth and setting the excitation and emission wavelengths to 635 and 670 nm, respectively. The G-factor (G) was also determined empirically as 1.094 for the instrument and included in all the anisotropy calculations.
# (§3) For the indirect binding assays, r was calculated in the same manner as the direct binding assays. […] The control was subtracted from r to yield r′. Data were fit to a sigmoidal interpolation model on GraphPad Prism 9, and an IC50 was generated for each unlabeled peptide or protein measured.
# [7] = molecular target: T2, LptAmQ62L (Escherichia coli, UniProt P0ADV1, Q62L); assay: biochemical; type: binding, E. coli
# T2 construct: His6-GB1 (N, cleaved yes); made in house; host or cells: E. coli BL21 (DE3)
# T2 sequence (P0ADV1 28-159 Q62L): as the sequence (P0ADV1 28-159) above, with Q35L counted along it
# Protocol: as §2, §3
# [8] = test system: human red blood cells; assay: Haemolysis; type: cell-based; conditions: PBS-washed human red blood cells; 1 h at 200 mg/liter, 37°C; OD 540 nm; versus 100% lysis control 2.5% Triton X-100; biological replicates
# Protocol: To test their hemolytic potential, compounds were incubated in the presence of phosphate-buffered saline (PBS)–washed human red blood cells. After 1-hour incubation at 200 mg/liter and 37°C, the samples were centrifuged (3220g), the supernatants were diluted in Dulbecco’s PBS, and optical density at 540 nm was determined. The hemolysis induced by the compound was calculated versus a 100% lysis control prepared with 2.5% Triton X-100 (table S4A).
# [9] = in vitro; type: cell-based; conditions: human
# Protocol: The cytotoxicity of compounds was determined by determining the number of viable cells using the Sigma Cell Counting Kit-8 (WST-8). HeLa cells were incubated at 37°C and 5% CO2 for 24 hours, after which the medium was replaced with fresh medium containing dilutions of compounds. […]
smiles,measurement,setting,value
CC[C@H](C)[C@H](NC(=O)[C@@H](NC(=O)[C@@H]1CCCN1C(=O)[C@@H](NC(=O)[C@@H]1CCCN1C(=O)[C@H](CCCCN)NC(=O)[C@@H](N)CCCCN)C(C)C)[C@@H](C)CC)C(=O)N[C@@H](Cc1ccc(O)cc1)C(=O)N[C@@H]1C(=O)N[C@@H](CC(N)=O)C(=O)N[C@@H](CCCNC(=N)N)C(=O)N[C@@H](CCN)C(=O)N[C@@H]([C@@H](C)O)C(=O)N[C@H](CCN)C(=O)N[C@@H](CCCCN)C(=O)N[C@H](C(=O)N[C@@H](CCN)C(=O)N[C@@H](CCCNC(=N)N)C(=O)N[C@@H](Cc2ccc(O)cc2)C(=O)O)CSSC1(C)C [Compound 2] (H-KKPVPIIY[Pen]NR[Dab]T[dDab]KC[Dab]RY-OH; disulfide 9-16),MIC E. coli ATCC 25922 Parent,[1],0.031 micrograms per milliliter
same,MIC E. coli ATCC 25922 Q62L mutant,[2],2 micrograms per milliliter
same,MIC K. pneumoniae ATCC 43816 Parent,[3],0.125 micrograms per milliliter
same,MIC K. pneumoniae NCTC 13443 (NDM-1) Parent,[4],0.5 micrograms per milliliter
same,MIC K. pneumoniae NCTC 13443 (NDM-1) Q62L mutant,[5],>8 micrograms per milliliter
same,IC50,[6],12.6 ± 0.7 nM
same,Ki,[6],2.1 ± 0.1 nM
same,IC50,[7],19.3 ± 6.3 nM
same,Ki,[7],13.1 ± 4.2 nM
same,Haemolysis % at 0.2 g/L,[8],0%
same,IC50 at 48 h,[9],60 µM
